# Laboratory results as given in paper PMC5011342, “A high throughput drug screening assay to identify compounds that promote oligodendrocyte differentiation using acutely dissociated and purified oligodendrocyte precursor cells” (BMC Research Notes, 2016).
# Like-named read-outs stand apart in the source and are kept apart here.
# What was measured:
# [1] = system: acutely dissociated and purified rat OPCs; assay: Acute OL differentiation assay (MBP expression/cell, immunofluorescent image quantification); assay type: cell-based; conditions: Rattus norvegicus, sheet "All OLga data"; for activation at 0.08 µM: test compound at 0.08 uM, read-out: 0.08 uM (% Quet); for activation at 10 µM: test compound at 10 uM, read-out: 10 uM (% Quet)
# In short: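 Oligodendrocyte precursor cells were enriched from P6-P7 Sprague–Dawley rat brains by immunopanning (RAN-2 and GalC depletion, O4 selection), plated at 5000 cells/well in serum-free, mitogen-free differentiation media on PDL/laminin 96-well view plates, centrifuged at 200×g, and pre-incubated 1–2 h before test compounds were added in quadruplicate. On DIV4, cells were fixed, stained for MBP and DAPI, imaged automatically, and MBP expression per cell was quantified.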
# expanded OPCs = assay: cells; conditions: for 0.1 µM (% DMSO) / 1 µM (% DMSO) / 10 µM (% DMSO): alamarBlue viability of expanded OPCs, relative to DMSO control; for 0.1 µM (% DMSO): compound at 0.1 µM; for 1 µM (% DMSO): compound at 1 µM; for 10 µM (% DMSO): compound at 10 µM; for viability at 0.1 µM / viability at 1 µM / viability at 10 µM: Rattus norvegicus, 72 h
# In short: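 Expanded OPCs seeded at 10,000 cells/well in differentiation media, then exposed to NCC library compounds at 10, 1 and 0.1 µM (quadruplicate, 0.1% DMSO) for three days. Viability read as alamarBlue fluorescence (560/590 nm) after 4 h at 37 °C; tunicamycin 5 ng/ml served as toxicity control.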
# [2] = NCC library screen, relative to quetiapine
# [3] = test compound at 0.4 uM, NCC library screen, relative to quetiapine, read-out: 0.4 uM (% Quet)
# [4] = test compound at 2 uM, NCC library screen, relative to quetiapine, read-out: 2 uM (% Quet)
# [5] = read-out: 0.1 µM (% DMSO), alamarBlue viability, NCC library compound at 0.1 µM, sheet "All Tox data"
# [6] = read-out: 1 µM (% DMSO), alamarBlue viability, NCC library compound at 1 µM, sheet "All Tox data"
# [7] = read-out: 10 µM (% DMSO), alamarBlue viability, NCC library compound at 10 µM, sheet "All Tox data"
# [8] = 0.4 uM test compound, relative to quetiapine, read-out: OL differentiation, 0.4 uM (% Quet)
# [9] = 2 uM test compound, relative to quetiapine, read-out: OL differentiation, 2 uM (% Quet)
# [10] = test compound at 2 uM, MBP expression relative to quetiapine, NCC library screen, read-out: 2 uM (% Quet)
# [11] = MBP expression relative to quetiapine, NCC library screen
Compound,0.1 µM (% DMSO) (expanded OPCs),1 µM (% DMSO) (expanded OPCs),10 µM (% DMSO) (expanded OPCs),"activation at 2 µM [1, 4] [%]","activation at 10 µM [1, 2] [%]",viability at 0.1 µM (expanded OPCs; [5]) [%],viability at 1 µM (expanded OPCs; [6]) [%],viability at 10 µM (expanded OPCs; [7]) [%],further results
CNCCC=C1c2ccccc2CCc2ccccc21 [Nortriptyline],66.6,28.2,13.8,–,–,–,–,–,"activation at 0.08 µM [1, 2]: 2.3%; activation at 0.4 µM [1, 3]: -28.1%"
C[C@H](CCC(=O)O)[C@H]1CC[C@H]2[C@@H]3C(=O)C[C@@H]4CC(=O)CC[C@]4(C)[C@H]3CC(=O)[C@]12C [Dehydrocholic Acid],–,–,–,-12.3,-5.3,101,106,109,–
CCCCCCNC(=O)n1cc(F)c(=O)[nH]c1=O [Carmofur],–,–,–,–,–,–,–,–,"activation at 0.4 µM [1, 8]: -28.7%; activation at 2 µM [1, 9]: -84.8%; viability at 0.1 µM (expanded OPCs; read-out: 0.1 µM (% DMSO), alamarBlue viability of expanded OPCs, compound at 0.1 µM, sheet All Tox data): 90.5%; viability at 1 µM (expanded OPCs; read-out: 1 µM (% DMSO), alamarBlue viability of expanded OPCs, compound at 1 µM, sheet All Tox data): 76.1%; viability at 10 µM (expanded OPCs; read-out: 10 µM (% DMSO), alamarBlue viability of expanded OPCs, compound at 10 µM, sheet All Tox data): 14.6%"
C#C[C@]1(O)CC[C@H]2[C@@H]3CCC4=CC(=O)CC[C@@H]4[C@H]3CC[C@@]21C [Norethindrone],–,–,–,-0.9,-32,95,87.2,80.6,–
CC(C[N+](C)(C)C)OC(N)=O (stereo not shown) [Bethanechol],87.6,93.0,88.2,–,–,–,–,–,"activation at 2 µM [1, 10]: -1%; activation at 10 µM [1, 11]: -21.7%"
Clc1ccc2c(c1)C(N1CCNCC1)=Nc1ccccc1O2 [Amoxapine],–,–,–,–,–,62,40,19.2,"activation at 0.08 µM [1, 2]: 13%; activation at 0.4 µM [1, 3]: -10.8%"
CNC(=C[N+](=O)[O-])NCCSCc1ccc(CN(C)C)o1 [Ranitidine],109.0,105.8,106.7,-29.4,-7.9,–,–,–,–
CC(C)(C)NC(=O)[C@@H]1C[C@@H]2CCCC[C@@H]2CN1C[C@@H](O)[C@H](Cc1ccccc1)NC(=O)[C@H](CC(N)=O)NC(=O)c1ccc2ccccc2n1 [Saquinavir],–,–,–,–,–,95,88.9,14.5,"activation at 0.4 µM [1, 8]: -24.5%; activation at 2 µM [1, 9]: -82.7%"
CCOC(=O)[C@H](CCc1ccccc1)N[C@@H](C)C(=O)N1CCC[C@H]1C(=O)O [Enalapril],90.6,90.6,87.6,–,–,–,–,–,"activation at 2 µM [1, 10]: 8.8%; activation at 10 µM [1, 11]: -8.9%"
Nc1ncn([C@@H]2O[C@H](CO)[C@@H](O)[C@H]2O)c(=O)n1 [Azacitidine],92.1,66.4,57.5,–,–,–,–,–,"activation at 2 µM [1, 10]: -59.1%; activation at 10 µM [1, 11]: -131%"
NS(=O)(=O)Cc1noc2ccccc12 [Zonisamide],89.3,92.8,87.8,–,–,–,–,–,"activation at 2 µM [1, 10]: 5.9%; activation at 10 µM [1, 11]: 4.3%"
O=C(c1ccccc1)c1ccc2n1CCC2C(=O)O (stereo not shown) [Ketorolac],–,–,–,16.3,-1.3,97.7,102,103,–
O=C(O)CCNC(=O)c1ccc(/N=N/c2ccc(O)c(C(=O)O)c2)cc1 [Balsalazide],–,–,–,10.7,19.1,88.1,92,85.1,–
C#C[C@]1(O)CC[C@H]2[C@@H]3CCC4=Cc5oncc5C[C@]4(C)[C@H]3CC[C@@]21C [Danazol],95.3,92.4,47.1,24.1,–,–,–,–,"activation at 0.4 µM [1, 3]: 9.4%"
